Two compounds from patent US8568997B2, “Detection system and uses therefor” (Dimerix Bioscience Pty Ltd., priority 2006, dated 2013) can be followed below.

Common to all, as to format: cell-based
The target in assay [1] is T1, OxR2 with HA-TRHR (Homo sapiens, UniProt O43614+P34981).
T1 construct: expressed in transfected cells; host or cells: HEK293
T1 sequence (O43614 1-444): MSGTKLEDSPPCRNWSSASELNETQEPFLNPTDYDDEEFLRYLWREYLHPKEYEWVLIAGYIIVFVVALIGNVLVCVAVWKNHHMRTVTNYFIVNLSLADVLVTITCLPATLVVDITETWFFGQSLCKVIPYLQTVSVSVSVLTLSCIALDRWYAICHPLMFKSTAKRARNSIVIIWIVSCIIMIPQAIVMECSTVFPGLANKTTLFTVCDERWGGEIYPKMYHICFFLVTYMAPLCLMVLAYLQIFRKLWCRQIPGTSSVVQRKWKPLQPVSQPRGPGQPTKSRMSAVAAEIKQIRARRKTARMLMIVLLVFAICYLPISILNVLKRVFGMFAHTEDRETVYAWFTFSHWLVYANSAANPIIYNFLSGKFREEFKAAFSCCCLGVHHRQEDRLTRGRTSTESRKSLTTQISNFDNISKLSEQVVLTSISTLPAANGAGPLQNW
T1 sequence (P34981 1-398): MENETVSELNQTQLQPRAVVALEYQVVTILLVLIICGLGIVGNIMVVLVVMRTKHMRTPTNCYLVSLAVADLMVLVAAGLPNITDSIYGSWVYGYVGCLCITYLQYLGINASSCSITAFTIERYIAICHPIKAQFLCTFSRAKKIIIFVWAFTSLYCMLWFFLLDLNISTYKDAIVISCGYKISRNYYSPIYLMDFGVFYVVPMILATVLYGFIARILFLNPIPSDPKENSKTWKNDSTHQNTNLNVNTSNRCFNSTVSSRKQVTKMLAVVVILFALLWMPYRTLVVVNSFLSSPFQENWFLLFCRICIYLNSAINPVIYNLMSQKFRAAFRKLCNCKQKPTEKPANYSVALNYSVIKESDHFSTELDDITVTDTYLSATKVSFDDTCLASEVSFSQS
The assay is described as follows: eBRET between OxR2/Rluc8 and barr2/Venus with HA-TRHR as IG3. As to the method: (§1) Phosphate-buffered saline (PBS) was used as a vehicle control.
(§2) Cells were seeded in 6-well plates at a density of approximately 630,000 cells/well (HEK293FT) or approximately 150,000 cells/well (COS-7) and maintained at 37° C., 5% CO2 in Complete Media (DMEM containing 0.3 mg/ml glutamine, 100 IU/ml penicillin and 100 μg/ml streptomycin (Gibco)) supplemented with 10% fetal calf serum (FCS; Gibco). Transient transfections were carried out 24 h after seeding using GeneJuice (Novagen) or Metafectene (Biontex) according to manufacturer instructions. 24 h post-transfection, cells were washed with PBS, detached using 0.05% trypsin/0.53 mM EDTA, resuspended in HEPES-buffered phenol red free Complete Media containing 5% FCS and added to a poly-L-lysine-coated white microplate (Nunc). 48 h post-transfection, eBRET assays were carried out following pre-incubation of cells with EnduRen™ (Promega) at a final concentration of 30-40 μM, at 37° C., 5% CO2 for 2 h. For original BRET studies, the HEPES-buffered phenol red free Complete Media was replaced with PBS and coelenterazine h (Molecular Probes) added to a final concentration of 5 μM immediately prior to commencing the assay. […] Filtered light emissions were sequentially measured for 3-5 s in each of the ‘donor wavelength window’ (400-475 nm) and ‘acceptor wavelength window’ (>500 nm for EGFP or 520-540 nm for EYFP, Topaz (TYFP) or Venus). […]
Background: Bioluminescence resonance energy transfer reports proximity on the nanometre scale.

Assay [2] has as its system TRHR335 (truncated TRHR) with OxR2. Description: eBRET/BRET between TRHR335/Rluc and labelled beta-arrestin with OxR2 as IG3.
Description: Cells were seeded in 6-well plates at a density of approximately 630,000 cells/well (HEK293FT) or approximately 150,000 cells/well (COS-7) and maintained at 37° C., 5% CO2 in Complete Media (DMEM containing 0.3 mg/ml glutamine, 100 IU/ml penicillin and 100 μg/ml streptomycin (Gibco)) supplemented with 10% fetal calf serum (FCS; Gibco). Transient transfections were carried out 24 h after seeding using GeneJuice (Novagen) or Metafectene (Biontex) according to manufacturer instructions. 24 h post-transfection, cells were washed with PBS, detached using 0.05% trypsin/0.53 mM EDTA, resuspended in HEPES-buffered phenol red free Complete Media containing 5% FCS and added to a poly-L-lysine-coated white microplate (Nunc). 48 h post-transfection, eBRET assays were carried out following pre-incubation of cells with EnduRen™ (Promega) at a final concentration of 30-40 μM, at 37° C., 5% CO2 for 2 h. For original BRET studies, the HEPES-buffered phenol red free Complete Media was replaced with PBS and coelenterazine h (Molecular Probes) added to a final concentration of 5 μM immediately prior to commencing the assay. […] Filtered light emissions were sequentially measured for 3-5 s in each of the ‘donor wavelength window’ (400-475 nm) and ‘acceptor wavelength window’ (>500 nm for EGFP or 520-540 nm for EYFP, Topaz (TYFP) or Venus). The BRET signal observed between interacting proteins is normalized by subtracting the background BRET ratio.
In assay [3] the target is T2, OxR2 (Homo sapiens, UniProt O43614).
T2 construct: expressed in transfected cells; host or cells: HEK293
T2 sequence (O43614 1-444): T1 sequence (O43614 1-444)
Description: BRET/eBRET beta-arrestin 2 recruitment to OxR2/Rluc (or Rluc8) without IG3 (pcDNA3). The conditions noted are these: OxR2/Rluc8 + barr2/Venus + pcDNA3. As to the method: as §1, §2

In assay [4] the test system is thyrotropin releasing hormone receptor (TRHR). Description: eBRET/BRET beta-arrestin recruitment to TRHR/Rluc without IG3 (pcDNA3) in HEK293 cells. The method, then: eBRET measurements at 37 C were carried out on HEK293 cells transiently co-expressing TRHR/Rluc and barr2/Venus with either pcDNA3, orexin receptor 2 (OxR2), CXC chemokine receptor 2 (CXCR2), hemagglutin epitope-tagged melanocortin receptor 3 or 4 (HA-MC3R or HA-MC4R), or dopamine D2 receptor long form (D2LR) or short form (D2SR) following the treatment of each with their respective ligands.
Ligand treatments were either OxA or TRH only or both OxA and TRH combined. Phosphate-buffered saline (PBS) was used as a vehicle control.
Ligand treatments were either OxA or TRH only. Phosphate-buffered saline (PBS) was used as a vehicle control.
BRET measurements at 37 C were carried out on HEK293 cells transiently co-expressing TRHR/Rluc, barr2/Venus and pcDNA3 with increasing doses of TRH. Sigmoidal dose response curves were plotted using Prism (Graph Pad), either assuming a Hill slope of 1 or allowing for variable slope. The EC50 and Hill slope values for the variable slope curve are included in a table in the graph.
TRHR is IG1, Rluc is RC1, barr1 is IG2, EGFP is RC2 and OxR2 is IG3. The same amount of EGFP/barr1 (IG2-RC2) is transfected for each experiment.
Cells were seeded in 6-well plates at a density of approximately 630,000 cells/well (HEK293FT) or approximately 150,000 cells/well (COS-7) and maintained at 37° C., 5% CO2 in Complete Media (DMEM containing 0.3 mg/ml glutamine, 100 IU/ml penicillin and 100 μg/ml streptomycin (Gibco)) supplemented with 10% fetal calf serum (FCS; Gibco). Transient transfections were carried out 24 h after seeding using GeneJuice (Novagen) or Metafectene (Biontex) according to manufacturer instructions. 24 h post-transfection, cells were washed with PBS, detached using 0.05% trypsin/0.53 mM EDTA, resuspended in HEPES-buffered phenol red free Complete Media containing 5% FCS and added to a poly-L-lysine-coated white microplate (Nunc). 48 h post-transfection, eBRET assays were carried out following pre-incubation of cells with EnduRen™ (Promega) at a final concentration of 30-40 μM, at 37° C., 5% CO2 for 2 h. For original BRET studies, the HEPES-buffered phenol red free Complete Media was replaced with PBS and coelenterazine h (Molecular Probes) added to a final concentration of 5 μM immediately prior to commencing the assay. BRET measurements were taken at 37° C. using the Victor Light plate reader with Wallac 1420 software (Perkin-Elmer). Filtered light emissions were sequentially measured for 3-5 s in each of the ‘donor wavelength window’ (400-475 nm) and ‘acceptor wavelength window’ (>500 nm for EGFP or 520-540 nm for EYFP, Topaz (TYFP) or Venus). The BRET signal observed between interacting proteins is normalized by subtracting the background BRET ratio. This can be done in one of two ways (see Pfleger et al. (2006) Cell Signal 18, 1664-1670; Pfleger et al. (2006) Nat Protoc 1, 336-344): 1) the ratio of light emission through the ‘acceptor wavelength window’ over the 400-475 nm emission for a cell sample containing only the donor construct is subtracted from the same ratio for a sample containing the interacting acceptor and donor fusion proteins; 2) the ratio of light emission through the ‘acceptor wavelength window’ over the 400-475 nm emission for a cell sample treated with vehicle is subtracted from the same ratio for a second aliquot of the same cell sample treated with ligand. In the following examples, the first calculation will be used, unless the signal is described as the ligand-induced BRET ratio'.

Assay [5] concerns the target bradykinin B2 receptor (B2R) with HA-AT1R (Homo sapiens, UniProt P30556). Description: eBRET between B2R/Rluc8 and barr2/Venus with HA-AT1R as IG3. As to the method: Phosphate-buffered saline (PBS) was used as a vehicle control. Data presented as ligand-induced BRET ratio.
BRET measurements at 37 C were carried out on HEK293 cells transiently co-expressing B2R/Rluc8, barr2/Venus and HA-AT1R treated with increasing doses of Angiotensin II (AngII). A sigmoidal dose response curve was plotted using Prism (GraphPad) allowing for variable slope.
Cells were seeded in 6-well plates at a density of approximately 630,000 cells/well (HEK293FT) or approximately 150,000 cells/well (COS-7) and maintained at 37° C., 5% CO2 in Complete Media (DMEM containing 0.3 mg/ml glutamine, 100 IU/ml penicillin and 100 μg/ml streptomycin (Gibco)) supplemented with 10% fetal calf serum (FCS; Gibco). Transient transfections were carried out 24 h after seeding using GeneJuice (Novagen) or Metafectene (Biontex) according to manufacturer instructions. […] BRET measurements were taken at 37° C. using the Victor Light plate reader with Wallac 1420 software (Perkin-Elmer). Filtered light emissions were sequentially measured for 3-5 s in each of the ‘donor wavelength window’ (400-475 nm) and ‘acceptor wavelength window’ (>500 nm for EGFP or 520-540 nm for EYFP, Topaz (TYFP) or Venus). […]

“Also recorded” adds a separate entry of the source.

Chain of bradykinin B2 receptor (B2R) with HA-AT1R (P30411 whole entry): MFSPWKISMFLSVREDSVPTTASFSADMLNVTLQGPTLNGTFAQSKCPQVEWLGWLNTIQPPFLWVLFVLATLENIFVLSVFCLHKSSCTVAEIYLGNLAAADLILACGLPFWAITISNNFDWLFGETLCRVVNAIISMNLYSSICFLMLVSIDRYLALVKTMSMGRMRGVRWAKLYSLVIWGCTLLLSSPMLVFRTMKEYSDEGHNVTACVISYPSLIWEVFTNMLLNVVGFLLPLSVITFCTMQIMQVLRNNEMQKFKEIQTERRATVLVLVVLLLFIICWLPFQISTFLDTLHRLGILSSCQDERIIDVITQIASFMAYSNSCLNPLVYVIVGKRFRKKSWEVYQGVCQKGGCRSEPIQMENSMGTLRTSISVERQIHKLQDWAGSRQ
Chain of bradykinin B2 receptor (B2R) with HA-AT1R (P30556 whole entry): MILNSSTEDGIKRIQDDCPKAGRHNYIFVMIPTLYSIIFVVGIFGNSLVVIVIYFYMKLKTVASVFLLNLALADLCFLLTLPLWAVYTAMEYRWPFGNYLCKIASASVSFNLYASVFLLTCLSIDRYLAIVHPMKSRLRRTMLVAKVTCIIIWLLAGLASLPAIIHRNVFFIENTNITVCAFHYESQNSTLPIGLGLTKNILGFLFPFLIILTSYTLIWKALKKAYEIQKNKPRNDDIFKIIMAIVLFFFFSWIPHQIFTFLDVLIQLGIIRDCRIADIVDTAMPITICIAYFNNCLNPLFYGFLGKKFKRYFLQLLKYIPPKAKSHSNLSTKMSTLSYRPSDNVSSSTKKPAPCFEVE

As to `NC(=O)[C@@H]1CCCN1C(=O)[C@H](Cc1cnc[nH]1)NC(=O)[C@@H]1CCC(=O)N1` [TRH, pGlu-His-Pro-NH2], the “ligand-induced eBRET signal” value is on record as 0.05 in assay [1] and “No ligand-induced eBRET signal” in assay [3]. Also, the eBRET signal result in assay [2] (TRHR335/Rluc + EGFP/barr1 + OxR2) is given as “no eBRET signal above baseline”; in assay [4] (TRHR/Rluc + EGFP/barr (barr1, barr2 or barr1R169E), no OxR2) it was “rapid stimulation of the eBRET signal; also recorded: rapid increase in eBRET signal”. Also, the “BRET signal, dose response curves” value in assay [2] (TRHR335/Rluc + barr2/Venus + OxR2) was “does not result in a BRET signal”. Besides, the “time to eBRET signal peak” value in assay [4] (HEK293, TRHR/Rluc + barr2/Venus + pcDNA3, ligand 10^−6M) is listed as “Within the first minute”. For the same compound, the eBRET signal peak entry in assay [4] (HEK293, TRHR/Rluc + barr2/Venus + pcDNA3, ligand 10^−6M, 37 C) was “greater than 0.17”. In assay [4] (TRHR/Rluc + barr2/Venus + pcDNA3, FIG. 10), the “dose-response Hill slope” value was “approximately 1”.
Take AngII: the “eBRET signal (ligand-induced BRET ratio)” value in assay [5] is listed as “robust increase in the eBRET signal”.
